Here are results for five molecules from patent US12583869B2, “Salt form and crystal form of A2A receptor antagonist and preparation method therefor” (CSTONE PHARMACEUTICAL (SUZHOU) CO., LTD., priority 2019, dated 2026).

Like-named read-outs stand apart in the source and are kept apart here.

A short description of data set [1]: Stability experiments of crystal forms (60°C/75% RH, HPLC related substances). Conditions: for Stability under high temperature and high humidity conditions (in words): 60°C/75% humidity, 1 week. The format is physicochemical. The procedure: A certain amount (approximately 10 mg) of two parts of the crystal form A of the compound of formula (I), the crystal form B of the compound of formula (II) and the crystal form C of the compound of formula (III) were weighed in parallel, and added to a 40 mL of sample bottle, which were placed in a constant temperature and humidity box at 60° C./75% humidity for 1 week. Another sample (about 10 mg) of the crystal form A of the compound of formula (I), the crystal form B of the compound of formula (II) and the crystal form C of the compound of formula (III) were placed in a refrigerator at −20° C. as control samples. At the time point of investigation, the corresponding test sample was taken out of the stability box, the aluminum foil paper was removed from the sample bottle of 60° C./75% RH, and the sample bottle was covered with a bottle cap. The 0-day samples were taken out of the refrigerator and analyzed after the samples were restored to room temperature.

Data set [2] can be described thus: Pharmacokinetic experiment in mice, single intravenous and oral administration. Conditions: female, mouse, plasma; Balb/c mice, oral vs intravenous; read-out: Bioavailability F. The format is in vivo. How it is done: Experimental materials: Balb/c mice (female, 15-30 g, 7-9 weeks old, Shanghai Lingchang) were used.
Experimental method: The rodent pharmacokinetic characteristics of the compound after intravenous injection and oral administration were tested by a standard protocol. In the experiment, the candidate compound was formulated into a clear solution and given to mice by a single intravenous injection and a single oral administration. The solvent for intravenous injection (IV) was a mixed solvent of 5% DMSO/5% polyethylene glycol hydroxystearate/90% water, and the solvent for oral (PO) was a mixed solvents of 1% tween80, 9% PEG400, 90% H2O (pH=3). Whole blood samples within 48 hours were collected, centrifuged at 3000 g for 15 minutes at 4 degrees, separated the supernatant to obtain a plasma sample. Then 20 times the volume of acetonitrile solution containing internal standard was added to precipitate the protein, the mixture was centrifuged to take the supernatant, equal volume of water was added and centrifuge to take the supernatant again for injection. The blood drug concentration was quantitatively analyzed by LC-MS/MS analysis method, and the pharmacokinetic parameters were calculated, such as peak concentration, peak time, clearance rate, half-life, area under the drug-time curve, bioavailability, etc.

Data set [3] can be described thus: In vivo PK experiment, plasma and tumor tissue on day 20 of the efficacy experiment. Also noted: species or system BALB/c mice. The conditions noted are these: BALB/c, mouse, oral; for concentration at 1 h / concentration at 4 h: tumor, read-out: Tumor drug concentration. The procedure: Blood was collected and tissues were collected from each group of the experiment at different time points (0 h, 0.25 h, 0.5 h, 1 h, 2 h, 4 h, 8 h and 24 h) on day 20 of the administration of experimental embodiment 3. The pharmacokinetic parameters of each experimental group were shown in Table 12, and the biological ratios of the tumor tissue drug concentration and the corresponding blood sampling point tumor tissue drug concentration and plasma drug concentration of each experimental group were shown in Table 13.

The test system of data set [4] is mouse colon cancer CT26 cells. In words: In vivo drug efficacy experiment, subcutaneous CT26 allograft tumor. Conditions: CS1003 1 mg/kg intraperitoneal, day 20. Also noted: species or system BALB/c mice. How it is done: Experimental materials: BALB/c mice (female); mouse colon cancer CT26 cells (cell bank of the Type Culture Collection Committee of the Chinese Academy of Sciences), were cultured in a monolayer in vitro, and the culture condition was RPMI-1640 medium containing 10% fetal bovine serum, and cultured in 5% CO2 incubator at 37° C. Trypsin-EDTA was used for conventional digestion and passage. When the cells were in the exponential growth phase and the saturation was 80%-90%, the cells were collected and counted.
Compound preparation: The compound of formula (II-1) was weighed and added to a solvent (10% PEG400+90% (10% Cremophor aqueous solution)) to prepare samples of 2.5 mg/mL, 5 mg/mL, and 10 mg/mL, respectively. […]
Experimental operation: The cells in Dulbecco's phosphate buffer were resuspended at a density of 3×10^6 cells/mL. […] During the entire experiment, the animals were weighed and monitored daily. […] The tumor diameter was measured with vernier calipers twice a week. […]
The anti-tumor efficacy of the compound was evaluated by GI (%) or relative tumor proliferation rate T/C (%). […]
The statistical analysis was based on the relative tumor volume and tumor weight at the end of the experiment using SPSS software. The comparison between the two groups was analyzed by t-test, and the comparison between three or more groups was analyzed by one-way ANOVA. […]

`Nc1nc(-c2ccc(F)cc2)c(-c2ccc3ncnn3c2)c2nccnc12.O=C(O)/C=C\C(=O)O`: in data set [1] (0 day (control sample, -20°C)), the “Impurity at relative retention time 0.36” value worked out at 0.06, the “Impurity at relative retention time 0.45” value came out at 0.09, the “Impurity at relative retention time 0.49” value stood at 0.09 and the “Impurity at relative retention time 0.67” value is listed as 0.05. In data set [1] (0 day (control sample, -20°C)), the “Impurity at relative retention time 0.70” value was 0.11, the “Impurity at relative retention time 1.18” value is given as 0.29 and the Total impurities % came to 0.69%. Also, in data set [1] (60 C./75% RH, one week), the “Impurity at relative retention time 0.36” value was 0.05, the “Impurity at relative retention time 0.45” value worked out at 0.09, the “Impurity at relative retention time 0.49” value turned out to be 0.09 and the “Impurity at relative retention time 0.67” value is 0.05. Besides, in data set [1] (60 C./75% RH, one week), the “Impurity at relative retention time 0.70” value is reported as 0.12, the “Impurity at relative retention time 1.18” value worked out at 0.29 and the Total impurities % was 0.69%. Moreover, the “Stability under high temperature and high humidity conditions (in words)” value (“Stability” for short) in data set [1] is given as “good stability”.

Broadly, the bioavailability is dose-corrected exposure relative to a reference, in per cent. On to `Nc1nc(-c2ccc(F)cc2)c(-c2ccc3ncnn3c2)c2nccnc12` [Compound of formula (II-1)], for which the bioavailability in data set [2] amounted to 30.4%. The concentration at 1 h in data set [3] (25 mpk, Group 4, 25 mpk + CS1003, time point 1 h) stood at 3.48 µM; in data set [3] (50 mpk, Group 5, 50 mpk once a day + CS1003, time point 1 h), 9.96 µM; in data set [3] (100 mpk, Group 6, 100 mpk + CS1003, time point 1 h), 18.7 µM. The concentration at 4 h in data set [3] (25 mpk, Group 4, 25 mpk + CS1003, time point 4 h) came to 0.925 µM; in data set [3] (50 mpk, Group 5, 50 mpk once a day + CS1003, time point 4 h) it was 1.66 µM; in data set [3] (50 mpk, Group 8, 50 mpk twice a day + CS1003, time point 4 h), 3.02 µM; in data set [3] (100 mpk, Group 6, 100 mpk + CS1003, time point 4 h), 3.03 µM. In addition, the Kp at 1 h in data set [3] (tumor/plasma, Group 4, 25 mpk + CS1003, time point 1 h, read-out: T/P Ratio (compound exposure in tumor tissue and plasma)) was found to be 0.7.

As for `Nc1nc(-c2ccc(F)cc2)c(-c2ccc3ncnn3c2)c2nccnc12` [Crystal form B of the compound of formula (II)], in data set [1] (0 day (control sample, -20°C)), the “Impurity at relative retention time 0.36” value came out at 0.09, the “Impurity at relative retention time 0.45” value was determined as 0.10, the “Impurity at relative retention time 0.49” value was 0.09 and the “Impurity at relative retention time 0.67” value was 0.05. In data set [1] (0 day (control sample, -20°C)), the “Impurity at relative retention time 0.70” value came out at 0.15, the “Impurity at relative retention time 1.18” value is listed as 0.40 and the Total impurities % was 0.87%. In addition, in data set [1] (60 C./75% RH, one week), the “Impurity at relative retention time 0.36” value is reported as 0.09, the “Impurity at relative retention time 0.45” value is listed as 0.10, the “Impurity at relative retention time 0.49” value is reported as 0.09 and the “Impurity at relative retention time 0.67” value amounted to 0.05. Further, in data set [1] (60 C./75% RH, one week), the “Impurity at relative retention time 0.70” value worked out at 0.15, the “Impurity at relative retention time 1.18” value came to 0.40 and the Total impurities % came to 0.87%. Besides, the “Stability” value in data set [1] was “good stability”.

For the molecule `Nc1nc(-c2ccc(F)cc2)c(-c2ccc3ncnn3c2)c2nccnc12` [Crystal form C of the compound of formula (III)], in data set [1] (0 day (control sample, -20°C)), the “Impurity at relative retention time 0.36” value was 0.05, the “Impurity at relative retention time 0.45” value came out at 0.09, the “Impurity at relative retention time 0.49” value is 0.08 and the “Impurity at relative retention time 0.67” value came out at 0.04. Moreover, in data set [1] (0 day (control sample, -20°C)), the “Impurity at relative retention time 0.70” value turned out to be 0.09, the “Impurity at relative retention time 1.18” value stood at 0.50 and the Total impurities % is reported as 0.96%. Also, in data set [1] (60 C./75% RH, one week), the “Impurity at relative retention time 0.36” value came out at 0.05, the “Impurity at relative retention time 0.45” value is 0.09, the “Impurity at relative retention time 0.49” value was 0.08 and the “Impurity at relative retention time 0.67” value is on record as 0.04. In data set [1] (60 C./75% RH, one week), the “Impurity at relative retention time 0.70” value is listed as 0.09, the “Impurity at relative retention time 1.18” value is 0.52 and the Total impurities % stood at 1.16%. In addition, in data set [1], the “Stability” value was “good stability”.

B1: CS1003: full-length, fully humanized immunoglobulin G4 (IgG4) monoclonal antibody against PD-1 (antibody, chains of the INN, looked up, V domains shown)
VH: QVQLVQSGAEVKKPGSSVKVSCKASGFTFTTYYISWVRQAPGQGLEYLGYINMGSGGTNYNEKFKGRVTITADKSTSTAYMELSSLRSEDTAVYYCAIIGYFDYWGQGTMVTVSS
VL: DVVMTQSPLSLPVTLGQPASISCRSSQSLLDSDGGTYLYWFQQRPGQSPRRLIYLVSTLGSGVPDRFSGSGSGTDFTLKISRVEAEDVGVYYCMQLTHWPYTFGQGTKLEIK
Regarding B1, the Tumor volume in data set [4] was found to be 487.34±109.07 mm^3. Besides, the “Tumor inhibition rate GI” value in data set [4] (no significant difference with solvent control) is given as 42.47%.
